Results on 18 compounds are retold here after patent US20240067632A1, “WEE1 Degrading Compounds and Uses Thereof” (Bristol-Myers Squibb Company, priority 2022, published 2024).

In one assay the target is T1, WEE1 (Homo sapiens, UniProt P30291+Q96SW2).
T1 construct: C-terminal ePL-tagged (DiscoverX, Fremont, CA) full-length WEE1 expression construct; expressed in transfected cells; host or cells: LentiX-HEK293T (Invitrogen), lentiviral transduction; co-expressing GSPT1-GN (G576N, lacking the first 158 amino acids)
In words: WEE1-ePL degradation assay (LentiX-WEE1-ePL-GSPT1-ND cells, InCELL Hunter luminescence, 4 h). The class given is cell-based. As to conditions: 293T-LentiX WEE1-ePL cells; for 293T-LentiX WEE1-ePL Degradation 4 hr (Ymin): lower limit of the fit (0 = luciferase inhibitor, Ymax = DMSO control); for DC50: read-out: 293T-LentiX WEE1-ePL Degradation 4 hr (EC50). Summed up:
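Luminescent readout (InCELL Hunter, 30 min RT) of WEE1-ePL levels in transduced HEK293T cells after 4 h compound exposure at 37 °C. Dosing: 10 points, 3-fold steps, top 1 uM or 10 uM. EC50 from four-parameter logistic fit; Ymax set by DMSO.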

The test system of a further assay is MKN45 cells. In words: MKN45 cell proliferation assay (Cell-Titer-Glo, 120 h). It counts as cell-based. Particulars: for EC50: Homo sapiens, MKN-45, 120 h, Cell-Titer-Glo, growth inhibition, read-out: MKN45 Cell Prolif. 120 hr (EC50); for MKN45 Cell Prolif. 120 hr (Ymin-Obs): minimal percent of DMSO control observed in the concentrations tested. The method, boiled down: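 Cells seeded at 400/well onto pre-printed 10-point half-log dilutions (top 1 or 10 uM, 0.1% DMSO final), in triplicate, and grown 120 h at 37 C. Viability by Cell-Titer-Glo luminescence, blank-subtracted and normalised to DMSO; EC50 from four-parameter logistic fit, with observed minimal % of control recorded as Ymin-obs.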

For orientation: EC50 means the concentration that produces a half-maximal response. Take `O=C1CCC(N2Cc3cc(O[C@H]4CCN(Cc5ccc6nc(N7CCCC(F)(F)C7)ccc6c5)C4)ccc3C2=O)C(=O)N1` (stereo partly drawn) [3-(5-{[(3S)-1-{[2-(3,3-difluoropiperidin-1-yl)quinolin-6-yl]methyl}pyrrolidin-3-yl]oxy}-1-oxo-2,3-dihydro-1H-isoindol-2-yl)piperidine-2,6-dione]: on WEE1, the “293T-LentiX WEE1-ePL Degradation 4 hr (Ymin)” value is on record as 25.84 and the DC50 was 18.5 nM. For the same compound, in the assay with MKN45 cells, the EC50 was 11.2 nM and the “MKN45 Cell Prolif. 120 hr (Ymin-Obs)” value amounted to 12.35.
For `CC1(C)CCN(c2ccc3cc(CN4CC[C@H](Oc5ccc6c(c5)CN(C5CCC(=O)NC5=O)C6=O)C4)ccc3n2)C1=O` (stereo partly drawn) [3-(5-{[(3S)-1-{[2-(3,3-dimethyl-2-oxopyrrolidin-1-yl)quinolin-6-yl]methyl}pyrrolidin-3-yl]oxy}-1-oxo-2,3-dihydro-1H-isoindol-2-yl)piperidine-2,6-dione] the same measures were 29.67, 7.36 nM, 3.88 nM and 7.37.
For `CC1(C)COCCN1c1ncc2cc(CN3CC[C@H](Oc4ccc5c(c4)CN(C4CCC(=O)NC4=O)C5=O)C3)ccc2n1` (stereo partly drawn) [3-(5-{[(3S)-1-{[2-(3,3-dimethylmorpholin-4-yl)quinazolin-6-yl]methyl}pyrrolidin-3-yl]oxy}-1-oxo-2,3-dihydro-1H-isoindol-2-yl)piperidine-2,6-dione] the same measures were 31.5, 4.82 nM, 17.6 nM and 17.3.
For `CC1(C)COCCN1c1ccc2cc(CN3CC[C@H](Oc4ccc5c(c4)CN(C4CCC(=O)NC4=O)C5=O)C3)ccc2n1` (stereo partly drawn) [3-(5-{[(3S)-1-{[2-(3,3-dimethylmorpholin-4-yl)quinolin-6-yl]methyl}pyrrolidin-3-yl]oxy}-1-oxo-2,3-dihydro-1H-isoindol-2-yl)piperidine-2,6-dione] the same measures were 34, 2.84 nM, 2.08 nM and 9.02.
On to `O=C1CCC(N2Cc3cc(O[C@H]4CCN(Cc5ccc6nc(N7CC(O)C7)ccc6c5)C4)ccc3C2=O)C(=O)N1` (stereo partly drawn) [3-(5-{[(3S)-1-{[2-(3-hydroxyazetidin-1-yl)quinolin-6-yl]methyl}pyrrolidin-3-yl]oxy}-1-oxo-2,3-dihydro-1H-isoindol-2-yl)piperidine-2,6-dione], for which, at WEE1, the “293T-LentiX WEE1-ePL Degradation 4 hr (Ymin)” value worked out at 34 and the DC50 came out at 14.1 nM. Besides, in the assay with MKN45 cells, the EC50 is 26.8 nM and the “MKN45 Cell Prolif. 120 hr (Ymin-Obs)” value turned out to be 13.6.
For `COC1CN(c2ccc3cc(CN4CC[C@H](Oc5ccc6c(c5)CN(C5CCC(=O)NC5=O)C6=O)C4)ccc3n2)C1` (stereo partly drawn) [3-(5-{[(3S)-1-{[2-(3-methoxyazetidin-1-yl)quinolin-6-yl]methyl}pyrrolidin-3-yl]oxy}-1-oxo-2,3-dihydro-1H-isoindol-2-yl)piperidine-2,6-dione], on WEE1, the “293T-LentiX WEE1-ePL Degradation 4 hr (Ymin)” value stood at 36 and the DC50 was found to be 2.3 nM. Also, in the assay on MKN45 cells, the concentration for a half-maximal effect (EC50) was determined as 6.82 nM and the “MKN45 Cell Prolif. 120 hr (Ymin-Obs)” value is listed as 11.6.
For `O=C1CCC(N2Cc3cc(O[C@H]4CCN(Cc5ccc6nc(N7CCC(F)(F)CC7)ccc6c5)C4)ccc3C2=O)C(=O)N1` (stereo partly drawn) [3-(5-{[(3S)-1-{[2-(4,4-difluoropiperidin-1-yl)quinolin-6-yl]methyl}pyrrolidin-3-yl]oxy}-1-oxo-2,3-dihydro-1H-isoindol-2-yl)piperidine-2,6-dione] the same measures were 21.62, 38.4 nM, 17.9 nM and 17.9.
For `CC1(C)CC(=O)N(c2ccc3cc(CN4CC[C@H](Oc5ccc6c(c5)CN(C5CCC(=O)NC5=O)C6=O)C4)ccc3n2)C1` (stereo partly drawn) [3-(5-{[(3S)-1-{[2-(4,4-dimethyl-2-oxopyrrolidin-1-yl)quinolin-6-yl]methyl}pyrrolidin-3-yl]oxy}-1-oxo-2,3-dihydro-1H-isoindol-2-yl)piperidine-2,6-dione], on WEE1, the “293T-LentiX WEE1-ePL Degradation 4 hr (Ymin)” value is 31 and the DC50 turned out to be 1.58 nM. In the assay on MKN45 cells, the EC50 stood at 2.77 nM and the “MKN45 Cell Prolif. 120 hr (Ymin-Obs)” value is 8.145.
`O=C1CCC(N2Cc3cc(O[C@H]4CCN(Cc5ccc6nc(C7(O)CCOCC7)ccc6c5)C4)ccc3C2=O)C(=O)N1` (stereo partly drawn) [3-(5-{[(3S)-1-{[2-(4-hydroxyoxan-4-yl)quinolin-6-yl]methyl}pyrrolidin-3-yl]oxy}-1-oxo-2,3-dihydro-1H-isoindol-2-yl)piperidine-2,6-dione]: at WEE1, the “293T-LentiX WEE1-ePL Degradation 4 hr (Ymin)” value is reported as 31.5 and the DC50 is 8.84 nM. Also, in the assay with MKN45 cells, the EC50 came out at 7.41 nM and the “MKN45 Cell Prolif. 120 hr (Ymin-Obs)” value turned out to be 6.55.
For `O=C1CCC(N2Cc3cc(O[C@H]4CCN(Cc5ccc6nc(N7CCC(O)CC7)ccc6c5)C4)ccc3C2=O)C(=O)N1` (stereo partly drawn) [3-(5-{[(3S)-1-{[2-(4-hydroxypiperidin-1-yl)quinolin-6-yl]methyl}pyrrolidin-3-yl]oxy}-1-oxo-2,3-dihydro-1H-isoindol-2-yl)piperidine-2,6-dione], at WEE1, the “293T-LentiX WEE1-ePL Degradation 4 hr (Ymin)” value was determined as 34.5 and the DC50 is 2.86 nM. Moreover, in the assay with MKN45 cells, the concentration giving a half-maximal response (EC50) was 6.59 nM and the “MKN45 Cell Prolif. 120 hr (Ymin-Obs)” value is recorded as 9.69.
For `COC1CCN(c2ccc3cc(CN4CC[C@H](Oc5ccc6c(c5)CN(C5CCC(=O)NC5=O)C6=O)C4)ccc3n2)CC1` (stereo partly drawn) [3-(5-{[(3S)-1-{[2-(4-methoxypiperidin-1-yl)quinolin-6-yl]methyl}pyrrolidin-3-yl]oxy}-1-oxo-2,3-dihydro-1H-isoindol-2-yl)piperidine-2,6-dione], in that order: 30.5, 2.49 nM, 3.75 nM and 9.39.
For the compound `CC1(c2ccc3cc(CN4CC[C@H](Oc5ccc6c(c5)CN(C5CCC(=O)NC5=O)C6=O)C4)ccc3n2)CCOCC1` (stereo partly drawn) [3-(5-{[(3S)-1-{[2-(4-methyloxan-4-yl)quinolin-6-yl]methyl}pyrrolidin-3-yl]oxy}-1-oxo-2,3-dihydro-1H-isoindol-2-yl)piperidine-2,6-dione], at WEE1, the “293T-LentiX WEE1-ePL Degradation 4 hr (Ymin)” value stood at 32 and the DC50 amounted to 1.99 nM. In the assay on MKN45 cells, the concentration giving a half-maximal response (EC50) turned out to be 4.03 nM and the “MKN45 Cell Prolif. 120 hr (Ymin-Obs)” value was found to be 10.29.
For `CN1CCN(c2ccc3cc(CN4CC[C@H](Oc5ccc6c(c5)CN(C5CCC(=O)NC5=O)C6=O)C4)ccc3n2)CC1` (stereo partly drawn) [3-(5-{[(3S)-1-{[2-(4-methylpiperazin-1-yl)quinolin-6-yl]methyl}pyrrolidin-3-yl]oxy}-1-oxo-2,3-dihydro-1H-isoindol-2-yl)piperidine-2,6-dione], in that order: 33.5, 6.77 nM, 20 nM and 13.365.
For `O=C1CCC(N2Cc3cc(O[C@H]4CCN(Cc5ccc6nc(N7CCC7)ccc6c5)C4)ccc3C2=O)C(=O)N1` (stereo partly drawn) [3-(5-{[(3S)-1-{[2-(azetidin-1-yl)quinolin-6-yl]methyl}pyrrolidin-3-yl]oxy}-1-oxo-2,3-dihydro-1H-isoindol-2-yl)piperidine-2,6-dione], in that order: 37, 3.01 nM, 6.71 nM and 10.91.
For `O=C1CCC(N2Cc3cc(O[C@H]4CCN(Cc5ccc6nc(C(F)F)ccc6c5)C4)ccc3C2=O)C(=O)N1` (stereo partly drawn) [3-(5-{[(3S)-1-{[2-(difluoromethyl)quinolin-6-yl]methyl}pyrrolidin-3-yl]oxy}-1-oxo-2,3-dihydro-1H-isoindol-2-yl)piperidine-2,6-dione], in that order: 29.42, 2.96 nM, 7.17 nM and 9.875.
Consider `CN(C)c1ccc2cc(CN3CC[C@H](Oc4ccc5c(c4)CN(C4CCC(=O)NC4=O)C5=O)C3)ccc2n1` (stereo partly drawn) [3-(5-{[(3S)-1-{[2-(dimethylamino)quinolin-6-yl]methyl}pyrrolidin-3-yl]oxy}-1-oxo-2,3-dihydro-1H-isoindol-2-yl)piperidine-2,6-dione], for which, at WEE1, the “293T-LentiX WEE1-ePL Degradation 4 hr (Ymin)” value was determined as 26.59 and the DC50 amounted to 2.71 nM. Besides, in the assay on MKN45 cells, the half-maximal effective concentration (EC50) is 20 nM and the “MKN45 Cell Prolif. 120 hr (Ymin-Obs)” value is listed as 12.34.
For `O=C1CCC(N2Cc3cc(O[C@H]4CCN(Cc5ccc6nc(CF)ccc6c5)C4)ccc3C2=O)C(=O)N1` (stereo partly drawn) [3-(5-{[(3S)-1-{[2-(fluoromethyl)quinolin-6-yl]methyl}pyrrolidin-3-yl]oxy}-1-oxo-2,3-dihydro-1H-isoindol-2-yl)piperidine-2,6-dione] the same measures were 26.21, 1.62 nM, 11.8 nM and 10.025.
As for `O=C1CCC(N2Cc3cc(O[C@H]4CCN(Cc5ccc6nc(CO)ccc6c5)C4)ccc3C2=O)C(=O)N1` (stereo partly drawn) [3-(5-{[(3S)-1-{[2-(hydroxymethyl)quinolin-6-yl]methyl}pyrrolidin-3-yl]oxy}-1-oxo-2,3-dihydro-1H-isoindol-2-yl)piperidine-2,6-dione], on WEE1, the “293T-LentiX WEE1-ePL Degradation 4 hr (Ymin)” value is 31.475 and the DC50 amounted to 9.39 nM. Also, in the assay with MKN45 cells, the EC50 stood at 54.4 nM and the “MKN45 Cell Prolif. 120 hr (Ymin-Obs)” value was found to be 11.84.
